In ChEMBL document CHEMBL1201862, “PubChem BioAssay data set” (2004):
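Results reflect a 48-hour exposure of cells in 96-well plates to compound at five concentrations. GI50 = concentration required for 50% inhibition of growth.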 Active and inactive are the calls of the source. Rule as the data show it: active = GI50 up to about 1.1 µM and inactive = higher.

Legend:
Assay in all cases: growth of human tumour cells (NCI), 48 h
[1] = test system: SW-620
[2] = test system: Malme-3M
[3] = test system: CAKI-1
[4] = test system: HOP-62
[5] = test system: SF-268
[6] = test system: PC-3
[7] = test system: SN12C
[8] = test system: HCC 2998
[9] = test system: SK-MEL-28
[10] = test system: U-251
[11] = test system: MOLT-4
[12] = test system: UO-31
[13] = test system: HL-60
[14] = test system: NCI/ADR-RES
[15] = test system: UACC-62
[16] = test system: MDA-N
[17] = test system: DU-145
[18] = test system: COLO 205
[19] = test system: Hs-578T
[20] = test system: ACHN
[21] = test system: SK-OV-3
[22] = test system: 786-0
[23] = test system: SF-539
[24] = test system: OVCAR-5
[25] = test system: HCT-15
[26] = test system: OVCAR-8
[27] = test system: A549
[28] = test system: M14
[29] = test system: NCI-H23
[30] = test system: CCRF-CEM
[31] = test system: MDA-MB-435
[32] = test system: RPMI-8226
[33] = test system: BT-549
[34] = test system: UACC-257
[35] = test system: EKVX
[36] = test system: HCT-116
[37] = test system: MCF7
[38] = test system: K562
[39] = test system: KM12
[40] = test system: MDA-MB-231
[41] = test system: OVCAR-3
[42] = test system: SK-MEL-5
[43] = test system: NCI-H226
[44] = test system: SNB-19
[45] = test system: HOP-92
[46] = test system: RXF 393
[47] = test system: TK-10
[48] = test system: OVCAR-4
[49] = test system: NCI-H460
[50] = test system: HT-29
[51] = test system: SNB-75
[52] = test system: LOX IMVI
[53] = test system: SK-MEL-2
[54] = test system: SF-295
[55] = test system: T47D
[56] = test system: NCI-H522
[57] = test system: IGROV-1
[58] = test system: A498

Measured: GI50

CCOC(=O)Cc1nc2cc(F)c(F)cc2[nH]c1=O
> 100 µM: [25]
inactive: [1] > 100 µM | [2] > 100 µM | [3] > 100 µM | [4] > 100 µM | [5] > 100 µM | [6] > 100 µM | [7] > 100 µM | [8] > 100 µM | [9] > 100 µM | [10] > 100 µM | [11] > 100 µM | [12] > 100 µM | [13] > 100 µM | [14] > 100 µM | [15] > 100 µM | [16] > 100 µM | [17] > 100 µM | [18] > 100 µM | [19] > 100 µM | [20] > 100 µM | [21] > 100 µM | [22] > 100 µM | [23] > 100 µM | [24] > 100 µM | [26] > 100 µM | [27] > 100 µM | [28] > 100 µM | [29] > 100 µM | [30] > 100 µM | [31] > 100 µM | [32] > 100 µM | [33] > 100 µM | [34] > 100 µM | [35] > 100 µM | [36] > 100 µM | [37] > 100 µM | [38] > 100 µM | [39] > 100 µM | [40] > 100 µM | [41] > 100 µM | [42] > 100 µM | [43] > 100 µM | [44] > 100 µM | [45] > 100 µM | [46] > 100 µM | [47] > 100 µM | [48] > 100 µM | [49] > 100 µM | [50] > 100 µM | [51] > 100 µM | [52] > 100 µM | [53] > 100 µM | [54] > 100 µM

CCSC1=N/C(=C\c2ccccc2O)C(Nc2ccc(C)cc2)=N1
inactive: [1] 50.6 µM | [2] 33.3 µM | [3] 86.1 µM | [4] 78.2 µM | [5] 71.8 µM | [6] 25.9 µM | [7] 66.7 µM | [9] 51.1 µM | [10] 41.9 µM | [11] 29.2 µM | [12] > 100 µM | [13] 39 µM | [55] 50 µM | [14] 56 µM | [15] > 100 µM | [17] 90.2 µM | [18] > 100 µM | [19] 56.1 µM | [20] 83.6 µM | [21] 42.7 µM | [22] 91.6 µM | [23] 75 µM | [24] > 100 µM | [26] 80.4 µM | [27] 47.4 µM | [28] 48.8 µM | [29] 56 µM | [56] 20.4 µM | [30] 31 µM | [31] 34.4 µM | [32] > 100 µM | [33] > 100 µM | [34] 99.1 µM | [35] > 100 µM | [57] 32.8 µM | [36] 39.1 µM | [38] 28.2 µM | [39] 24.5 µM | [40] > 100 µM | [41] 22.4 µM | [42] 30.2 µM | [43] 50.5 µM | [44] 45.8 µM | [45] 36.1 µM | [46] 75.2 µM | [58] > 100 µM | [47] > 100 µM | [49] 38.5 µM | [50] > 100 µM | [51] 46.1 µM | [52] > 100 µM | [53] 19.6 µM | [54] 34.4 µM
59.7 µM: [25]
